A melting point compilation (Tetko et al.; mined from patent text by program, amines drawn as free bases though some values may be those of a salt)
Starred links: 1 amine or outer side, 2 acyl side, 3 side chain; linkers in the order of their positions; H or OH if unused. Residues, ends and D or L forms follow the SMILES beside them. Glutaryl = O=C(CCCC(=O)[*:2])[*:1]

| melting point [°C] | SMILES |
| --- | --- |
| 92.5 to 94.5 | CCN(CC)CCOc1ccn2nc(-c3ccccc3)c(-c3ccc(=O)n(C(C)C)n3)c2c1 |
| 199 to 201 | CCc1cnc2c(c1)S(=O)(=O)NC2=O |
| 124 to 127 | O=S(=O)(Cl)Cc1csc(-c2ccc(Cl)c(Cl)c2)n1 |
| 214 to 216 | Cc1ccc(C2CCN(C(=O)Nc3ccc4nc(CN5CCCC5)ccc4c3)CC2)cc1 |
| 190 to 193 | CN1CCN(C(=O)CC2c3ccccc3C(=O)N2c2ccc(Cl)cn2)CC1 (stereo not drawn) |
| 110 to 113 | CCC(CC)n1ncn(-c2ccc(N3CCN([C@H](C)[C@@](O)(Cn4cncn4)c4ccc(F)cc4F)CC3)cc2)c1=O |
| 265 to 267 | COc1ccc(C=CC(=O)N2CCN(c3nc(N)c4cc(OC)c(OC)cc4n3)CC2)cc1 |
| 130 to 131 | COC(=O)c1cc(OCc2cn(-c3ccc(C(F)(F)F)cn3)nc2C)nn1C |
| 128 to 129 | CC(=O)N(CCCn1cncn1)C1=Nc2cccc3cccc1c23 |
| 98 | COc1ccc2cc([C@H](C)C(=O)OCC3(CO[N+](=O)[O-])COCOC3)ccc2c1 |
| 187 to 189 | COC(=O)CC/C(C)=C/Cc1c(NC=O)c2c(c(C)c1OC)COC2=O |
| 154 to 156 | CCNC(=O)C1CCCN1C(=O)C(C)NC(=O)C(C)NC(=O)CCCC(=O)O (stereo not drawn) (Glutaryl-Ala-Ala-Pro-NHEt; configuration not given here) |
| 194 to 197 | O=c1[nH]c2ncc(-c3ccc(-c4nnc[nH]4)cc3)nc2n1CCN1CCCCC1 |
| 118 to 120 | Cc1cc(-c2ccc(S(N)(=O)=O)cc2)n(-c2ccc(C)c(C)c2)c1 |
| 190 to 192 | CCOC(=O)c1cnc2c(c(C)nc3ccnn32)c1O |
| 130 | NC[C@@H]1CNc2cccc(-c3cc(Cl)ccc3Cl)c2O1 |
| 167 to 170 | COc1ccc2c(c1)C(c1ccc(N)cc1)=NNC(=O)C2 |

| melting point [°C] | SMILES |
| --- | --- |
| 166 to 168 | CCOCc1nc(C(C)(C)O)c(C(=O)OCc2oc(=O)oc2C)n1Cc1ccc(-c2ccccc2-c2nnn[nH]2)cc1 |
| 155 to 157 | O=Cc1cc2cc3c(cc2nc1I)OCCO3 |
| 78 to 79 | CCN(CC)c1ccc(/C=C/c2ccccc2F)cc1 |
| 130 to 133 | Nc1nc(Cl)cc(NCc2ccccc2F)n1 |
| 109 to 112 | FC(F)(F)c1cc(Cl)c(-n2cc(I)c(C(F)(F)F)n2)c(Cl)c1 |
| 203 | O=C1NC(=O)C(c2c[nH]c3cc(F)ccc23)=C1C1=COc2ccccc2O1 |
| 255 to 258 | Cn1c(SCc2ccccc2)nc2c(c1=O)NCN2C(c1ccccc1)(c1ccccc1)c1ccccc1 |
| 141 to 142 | CCCCCCCCCC(=O)Nc1ccc(S(=O)(=O)Nc2nnc(C)s2)cc1 |
| 90 to 91 | CCOC(=O)c1c(C(F)(F)F)oc(C(F)(F)F)c(C(=O)OCC)c1=O |
| 157 to 158 | Cc1ccc(C2c3c(C)c(N4CCN(c5ccc(C)cc5)CC4)c(C)c(C)c3OC2(C)C)cc1 (stereo not drawn) |
| 169 to 171 | O=c1c(CCCCBr)c(O)c2cccnc2n1-c1ccccc1 |
| 129 to 132 | CC1=C(C(=O)Nc2ccccn2)C(c2ccccc2Cl)C(C(=O)OCCCCn2c(C)nc3cnccc32)=C(c2ccc(F)cc2)N1 (stereo not drawn) |
| 126 to 129 | CCOC(=O)Cc1c(C)[nH]c(C(=O)c2ccccc2)c1C |
| 152 to 154 | Cc1ccccc1Nc1nc(N2CCCC2)nc2ccccc12 |
| 114 to 115 | CSCC(C)(C)NC(=O)c1c(I)cccc1[N+](=O)[O-] |
| 99 to 101 | CCCCOc1cc2c(c3c1OC(C)(C)C3)C(c1ccccc1)=NC(C)(C)C2 |
| 159 to 161 | C=C1C(O)C(CO)OC1n1cc(I)c(N)nc1=O (stereo not drawn) |

More lines, now with the values behind:

| SMILES | melting point [°C] |
| --- | --- |
| C=Cc1ccc(C(=O)Oc2ccc(C(=O)O)cc2)cc1C12CC3CC(CC(C3)C1)C2 | 86 to 87 |
| CN(C)CCC1CCC2(CC1)Nc1cc(Cl)c(S(N)(=O)=O)cc1S(=O)(=O)N2 (stereo not drawn) | 238 to 239 |
| COc1cc(COc2nn(-c3ccccc3)cc2/C=C/C(N)=O)ccc1OCc1nc(-c2ccco2)oc1C | 187 to 188 |
| NC1(C(=O)O)CC(OC(=O)Nc2ccccc2F)C2C(C(=O)O)C21 (stereo not drawn) | 232 to 233 |
| Cc1c(C)c2c(c(Cl)c1C=O)CC(C)(C)C2 | 108 |
| CCOC(=O)c1cc(OC(C)=O)c2cc(N3CCOCC3)ccc2c1 | 135 to 137 |
| CC1(C)COC(c2ccc(CC34CCCCN3C(=O)N(c3cc(Cl)cc(Cl)c3)C4=O)cc2)=N1 (stereo not drawn) | 87.2 |
| COC(=O)c1cc2c(N3CCN(CCC(C(=O)N4CCCCCC4)c4ccccc4)CC3)cccc2[nH]1 (stereo not drawn) | 152 to 168 |
| O=C(C1CCN(c2ccncc2)CC1)N1CCN(S(=O)(=O)c2ccc(-c3ccccn3)cc2)CC1 | 224 to 226 |
| O=C1CCc2nc(-c3ccccc3)ccc21 | 177 to 178 |
| Cc1cc(-n2ccnc2)c2cccc(OCc3c(Cl)ccc(S(=O)(=O)N4CCC[C@H]4C(=O)N4CCN(c5ccncc5)CC4)c3Cl)c2n1 | 136 |
| COc1ccc(CCNCC(O)c2ccccc2OC)cc1OC (stereo not drawn) | 88 |
| CCOc1c(OC)cc(C)c(C(=O)c2c(OC)ccc(Cl)c2C)c1OC | 131 to 132 |
| CCCCCCCCc1nc2c(N)nc3ccccc3c2n1CCOCCCc1ccccc1 | 104 |
| CC1(COCCCCCCOc2ccc(C(=O)O)cc2)COC1 | 58.5 |
| CC1(C)OC[C@H]([C@@H](CS(=O)(=O)c2ccc(Oc3ccc(C(F)(F)F)cc3)cc2)N(O)C=O)O1 | 141 to 143 |
| O=C1CC(c2cccc(-n3ccnc3)c2)=Nc2ccc(C#Cc3ccccc3)cc2N1 | 193 to 196 |
| Cc1cccc(C(=O)Nc2cn(C3CCCCO3)nc2C(=O)NCC(F)(F)F)n1 (stereo not drawn) | 184 to 185 |
| O=C(O)c1ccc(C(c2ccc(C(=O)O)c([N+](=O)[O-])c2)(C(F)(F)F)C(F)(F)F)cc1[N+](=O)[O-] | 235 to 238 |
| COc1ccc(C(=O)Nc2ccccc2CCCC2CCCCN2C)cc1 (stereo not drawn) | 107 to 110 |

| SMILES | melting point [°C] |
| --- | --- |
| N=C(N)Nc1nc(CCCCNc2c(NCCCCc3csc(NC(=N)N)n3)c(=O)c2=O)cs1 | 228 to 229 |
| CCOC(=O)COc1ccc2c(c1)C(=O)C(Br)CC2 (stereo not drawn) | 91 to 93 |
| CC1(C)CCC(C)(C)c2cc(C3NC(=O)NC3=O)ccc21 (stereo not drawn) | 213 to 214 |
| CC(C)CCn1cc(-c2cnc3c(c2)N(Cc2c(F)ccc(F)c2Cl)CCN3)cn1 | 134 |
| O=C(O)C(=O)c1cc2ccccc2s1 | 176 |
| O=C1CC(c2cccc(-c3nc(CO)co3)c2)=Nc2ccc(-n3cccc3)cc2N1 | 240 to 242 |
| CC(=O)OC1CSC(Oc2ccc(-c3cccnc3)cc2)C(OC(C)=O)C1OC(C)=O (stereo not drawn) | 150 |
| CCCCCCCCCCCCCCCCCCOC(=O)CCc1cc(C)c(O)c(C(C)(C)C)c1 | 58 to 59 |
| Cn1c(NCCCCCC(=O)O)c(NC=O)c(=O)n(C)c1=O | 152 to 153 |
| CC1=C(C(=O)OCCN(C)C)C(c2cccc([N+](=O)[O-])c2)C(C(=O)OCC2CC2)=C(C)N1 (stereo not drawn) | 125 to 126 |
| CC(C)NC1=NS(=O)(=O)c2cc(Cl)cc(Cl)c2N1 | > 230 |
| CC(C(=O)O)c1cccc(C2(c3ccccc3)OCCO2)c1 (stereo not drawn) | 91 to 94 |
| Cc1ccc(-c2nc(NC(=O)c3nnn[nH]3)cs2)cc1 | 228 to 230 |
| Clc1ccc2c(c1)N=C(N1CCN(CC3CC3)CC1)c1ccccc1N2 | 148 to 151 |
| NC(=O)c1cccc2c1CC(NCCCc1c[nH]c3ccc(F)cc13)CO2 (stereo not drawn) | 153 to 155 |
| Cn1cccc1C(=O)Nc1ccc(-n2nc(C(F)(F)F)cc2C(F)(F)F)cc1 | 148 to 149 |
| COc1cc(OC)c2c(C)c(CCN3CCN(c4ccccc4O)CC3)c(=O)oc2c1 | 164 to 165 |
| Cc1cc(C(C)(C)C)c(C)c(O)c1-c1c(C)cc(C(C)(C)C)c(C)c1O | 103 to 105 |
| CCOC(=O)Cn1c2c([nH]c(=O)c1=O)CCC1=C2C=C(n2ccc(C(=O)O)c2)CC1 | 282 |
| O=C(O)CC1CCCN(C(=O)c2ccc(N3CCCC3)cc2Cl)c2ccccc21 (stereo not drawn) | 191 to 192 |

| SMILES | melting point [°C] |
| --- | --- |
| CS(=O)(=O)C=Cc1ccccc1 | 77 to 79 |
| CC(=O)Nc1cc2c(cc1Oc1ccc(F)cc1F)CCC2=O | 210 |
| COc1ccccc1C1CC(=O)c2c(C)coc2C1 (stereo not drawn) | 79 to 80 |
| Nc1ccc([N+](=O)[O-])cc1-c1cc([N+](=O)[O-])ccc1N | 315 to 317 |
| Cc1cc2ccccc2c(-c2cccc(I)c2)n1 | 77 to 78 |
| COc1ccc(-c2cc3cc(F)c(F)cc3[nH]2)cc1NS(=O)(=O)c1cc(Cl)cc(Cl)c1 | 217 to 219 |
| Cc1ccc(N2C(=O)C(O)=C(C(=O)c3ccc(OC(F)(F)F)cc3)C2c2ccc(Cn3nccn3)cc2)nn1 (stereo not drawn) | 277 |
| Cc1[nH]cc2c1-c1ccc(Cl)cc1C(c1ccccc1F)=NC2 | 226 to 227 |
| O=C(C[C@@H]1COCCO1)N[C@H]1CC[C@H](CCN2CCN(c3nccc4c3CCO4)CC2)CC1 | 192 |
| CCCCCCCCn1c(=O)c2c(Cl)cc(Cl)cc2n(Cc2ccccc2)c1=O | 82 to 85 |
| CCNC(=S)NNC(=O)c1ccc(N)cc1 | 113 to 115 |
| CCCOc1ccc(-c2ccc3c(c2)C=C(C(=O)Nc2ccc(CN(C)C4CCOCC4)cc2)CCS3(=O)=O)cc1OCC | 203 to 205 |
| Nc1nc2c(s1)-c1c(cnn1-c1ccccc1)CC2 | 307 to 308 |
| COC1C(Oc2ccc(N)cc2)OC(CO)C(OC2OC(CO)C(O)C(OC)C2O)C1O (stereo not drawn) | 105 |
| O=C1OCCC12Sc1ccc(S(=O)(=O)N3CCCCC3)cc1C2=O (stereo not drawn) | 159 to 161 |
| CCOCc1nc(C(C)(C)O)c(C(=O)OCOC(=O)C(C)(C)C)n1Cc1ccc(-c2ccccc2-c2nnn[nH]2)cc1 | 56 to 61 |
| Cc1ccc(-c2ccc3c(c2)C=C(C(=O)Nc2ccc(CN4CCC(O)CC4)cc2)CC3)cc1 | 223 to 224 |
| CCOC(=O)C1=C(C)N(C(C)=O)C(c2csc(C)n2)=NC1c1ccccc1 (stereo not drawn) | 140 to 142 |
| CC(=O)OCCC1CCc2cccc3c(C4=C(c5cn(C)c6ccccc56)C(=O)OC4=O)cn1c23 (stereo not drawn) | 143 to 146 |
